36 compounds from US8362249B2, “CXCR3 receptor antagonists” (Boehringer Ingelheim International GmbH, priority 2009, dated 2013) can be followed below.

This test addresses CXCR3 (Macaca fascicularis, UniProt A0A2K5UV19). Nature of the test: functional cellular assay measuring calcium flux in CXCR3 transfected cells (block of CXCR3/IP-10 interaction). It is filed as cell-based. To be noted: IP-10 induced intracellular calcium flux; Cyno-CHO cells stably expressing recombinant CXCR3 and G-alpha-16. In short, it runs like this: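 Cyno-CHO cells stably co-expressing recombinant CXCR3 and G-alpha-16, loaded with Ca-4 dye (HBSS, 10 mM HEPES pH 7.4, 2 mM probenecid) for 1 h at 37 °C. Compound (10 microM final) preincubated 15 min at room temperature, then IP-10 added at EC80. Intracellular calcium flux read by fluorescence (ex 480/em 540 nm).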

Molecules are shown by their SMILES.

Sequence of CXCR3 (A0A2K5UV19 entry or part of it): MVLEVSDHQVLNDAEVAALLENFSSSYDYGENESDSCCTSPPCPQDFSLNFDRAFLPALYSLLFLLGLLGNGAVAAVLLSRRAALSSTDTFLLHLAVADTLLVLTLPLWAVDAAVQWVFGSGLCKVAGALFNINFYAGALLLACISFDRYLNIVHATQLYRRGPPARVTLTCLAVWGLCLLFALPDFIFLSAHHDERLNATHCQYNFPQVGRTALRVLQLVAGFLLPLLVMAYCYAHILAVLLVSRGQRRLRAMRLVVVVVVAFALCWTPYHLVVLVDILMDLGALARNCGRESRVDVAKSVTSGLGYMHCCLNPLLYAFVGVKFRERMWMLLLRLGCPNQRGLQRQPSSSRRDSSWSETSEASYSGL

As for `Cc1cc(C)n(CC(=O)N2CCN(c3ccccc3C(=O)Nc3cnc(C(F)(F)F)nc3)CC2)n1` [2-{4-[2-(3,5-Dimethyl-pyrazol-1-yl)-acetyl]-piperazin-1-yl}-N-(2-trifluoromethyl-pyrimidin-5-yl)-benzamide], the IC50 came out at 5 nM.

Turning to `Cc1cc(C)n(CC(=O)N2CCC(c3ccc(Cl)cc3NC(=O)c3ccccc3)CC2)n1` [N-(5-Chloro-2-{1-[2-(3,5-dimethyl-pyrazol-1-yl)-acetyl]-piperidin-4-yl}-phenyl)-benzamide], the IC50 worked out at 18.5 nM.

Consider `Cc1cc(C)n(CC(=O)N2CCN(c3ccccc3C(=O)Nc3ccc(Cl)nc3)CC2)n1` [N-(6-Chloro-pyridin-3-yl)-2-{4-[2-(3,5-dimethyl-pyrazol-1-yl)-acetyl]-piperazin-1-yl}-benzamide], for which the IC50 amounted to 7.2 nM.

In the case of `Cc1nn(C)c(C)c1CC(=O)N1CCN(c2ccccc2C(=O)Nc2ccncc2)CC1` [N-Pyridin-4-yl-2-{4-[2-(1,3,5-trimethyl-1H-pyrazol-4-yl)-acetyl]-piperazin-1-yl}-benzamide], the IC50 turned out to be 19.5 nM.

Consider `CS(=O)(=O)c1ccc(NC(=O)c2ccccc2N2CCN(C(=O)CN3CCc4cccnc43)CC2)cc1` [2-[4-(2-2,3-Dihydro-pyrrolo[2,3-b]pyridin-1-yl-acetyl)-piperazin-1-yl]-N-(4-methanesulfonyl-phenyl)-benzamide], for which the IC50 amounted to 9.7 nM.

Regarding `Cc1csc(NC(=O)c2ccccc2N2CCN(C(=O)Cn3nc(C)cc3C)CC2)n1` [2-{4-[2-(3,5-Dimethyl-pyrazol-1-yl)-acetyl]-piperazin-1-yl}-N-(4-methyl-thiazol-2-yl)-benzamide], the IC50 was determined as 12 nM.

For `Cc1cc(C)n(CC(=O)N2CCN(c3ccccc3NC(=O)c3cccc(Cl)c3)CC2)n1` [3-Chloro-N-(2-{4-[2-(3,5-dimethyl-pyrazol-1-yl)-acetyl]-piperazin-1-yl}-phenyl)-benzamide], the half-inhibitory concentration (IC50) is 4.2 nM.

In the case of `Cc1cc(C)n(CC(=O)N2CCN(c3ccccc3C(=O)Nc3cc(-c4ccccc4)no3)CC2)n1` [2-{4-[2-(3,5-Dimethyl-pyrazol-1-yl)-acetyl]-piperazin-1-yl}-N-(3-phenyl-isoxazol-5-yl)-benzamide], the IC50 is 8.8 nM.

Turning to `Cc1cc(C)n(CC(=O)N2CCN(c3ccccc3C(=O)Nc3ccnc(C(F)(F)F)c3)CC2)n1` [2-{4-[2-(3,5-Dimethyl-pyrazol-1-yl)-acetyl]-piperazin-1-yl}-N-(2-trifluoromethyl-pyridin-4-yl)-benzamide], the IC50 was determined as 12 nM.

For `O=C(Nc1ccncc1)c1ccccc1N1CCN(C(=O)Cc2cccc3cccnc23)CC1` [N-Pyridin-4-yl-2-[4-(2-quinolin-8-yl-acetyl)-piperazin-1-yl]-benzamide], the IC50 was found to be 14 nM.

`Cc1cc(C)n(CC(=O)N2CCN(c3ccccc3C(=O)Nc3ccccc3F)CC2)n1` [2-{4-[2-(3,5-Dimethyl-pyrazol-1-yl)-acetyl]-piperazin-1-yl}-N-(2-fluoro-phenyl)-benzamide]: the IC50 amounted to 5.5 nM.

As to `Cc1nc2ccccc2c(=O)n1CC(=O)N1CCN(c2ccccc2C(=O)Nc2ccncc2)CC1` [2-{4-[2-(2-Methyl-4-oxo-4H-quinazolin-3-yl)-acetyl]-piperazin-1-yl}-N-pyridin-4-yl-benzamide], the IC50 was 8.6 nM.

For the compound `Cc1cc(C)n(CC(=O)N2CCN(c3ccccc3C(=O)Nc3cc(C(C)(C)C)no3)CC2)n1` [N-(3-tert-Butyl-isoxazol-5-yl)-2-{4-[2-(3,5-dimethyl-pyrazol-1-yl)-acetyl]-piperazin-1-yl}-benzamide], the IC50 amounted to 8.9 nM.

On to `Cc1cc(C)n(CC(=O)N2CCN(c3ccccc3C(=O)Nc3ccc4oc(C)nc4c3)CC2)n1` [2-{4-[2-(3,5-Dimethyl-pyrazol-1-yl)-acetyl]-piperazin-1-yl}-N-(2-methyl-benzooxazol-5-yl)-benzamide], for which the IC50 worked out at 17.5 nM.

For the compound `O=C(Nc1ccncc1)c1ccccc1N1CCN(C(=O)Cn2cnc3ccccc3c2=O)CC1` [2-{4-[2-(4-Oxo-4H-quinazolin-3-yl)-acetyl]-piperazin-1-yl}-N-pyridin-4-yl-benzamide], the IC50 stood at 3.4 nM.

For the compound `O=C(Nc1cnc2ccccc2c1)c1ccccc1N1CCN(C(=O)Cn2ccc3cccnc32)CC1` [2-[4-(2-Pyrrolo[2,3-b]pyridin-1-yl-acetyl)-piperazin-1-yl]-N-quinolin-3-yl-benzamide], the IC50 is 8.4 nM.

`Cc1cc(C)n(CC(=O)N2CCN(c3ccccc3C(=O)Nc3nc4c(s3)CCCC4)CC2)n1` [2-{4-[2-(3,5-Dimethyl-pyrazol-1-yl)-acetyl]-piperazin-1-yl}-N-(4,5,6,7-tetrahydro-benzothiazol-2-yl)-benzamide]: the IC50 turned out to be 12 nM.

Take `Cc1cc(C)n(CC(=O)N2CCN(c3ccccc3C(=O)Nc3ccc(N4CCOCC4)nc3)CC2)n1` [2-{4-[2-(3,5-Dimethyl-pyrazol-1-yl)-acetyl]-piperazin-1-yl}-N-(6-morpholin-4-yl-pyridin-3-yl)-benzamide]: the IC50 amounted to 12.5 nM.

Consider `Cc1cc(C)n(CC(=O)N2CCN(c3ncc(Cl)cc3NC(=O)c3ccc(S(C)(=O)=O)cc3)CC2)n1` [N-(5-Chloro-2-{4-[2-(3,5-dimethyl-pyrazol-1-yl)-acetyl]-piperazin-1-yl}-pyridin-3-yl)-4-methanesulfonyl-benzamide], for which the IC50 stood at 23 nM.

As for `COc1ccc(C(=O)NCC(=O)N2CCN(c3ccccc3C(=O)Nc3ccccc3)CC2)cc1OC` [3,4-Dimethoxy-N-{2-oxo-2-[4-(2-phenylcarbamoyl-phenyl)-piperazin-1-yl]-ethyl}-benzamide], the IC50 was found to be 8.1 nM.

As to `Cc1cc(C)n(CC(=O)N2CCN(c3ccccc3C(=O)Nc3cc(CC(C)(C)C)no3)CC2)n1` [N-[3-(2,2-Dimethyl-propyl)-isoxazol-5-yl]-2-{4-[2-(3,5-dimethyl-pyrazol-1-yl)-acetyl]-piperazin-1-yl}-benzamide], the IC50 amounted to 9.5 nM.

In the case of `Cc1cc(C)n(CC(=O)N2CCCN(c3ncc(Cl)cc3NC(=O)c3cccc(Cl)c3)CC2)n1` [3-Chloro-N-(5-chloro-2-{4-[2-(3,5-dimethyl-pyrazol-1-yl)-acetyl]-[1,4]diazepan-1-yl}-pyridin-3-yl)-benzamide], the IC50 was 15 nM.

Take `Cc1cc(C)n(CC(=O)N2CCN(c3ccccc3C(=O)Nc3cnc(C)c(F)c3)CC2)n1` [2-{4-[2-(3,5-Dimethyl-pyrazol-1-yl)-acetyl]-piperazin-1-yl}-N-(5-fluoro-6-methyl-pyridin-3-yl)-benzamide]: the IC50 worked out at 14 nM.

Regarding `Cc1cc(C)n(CC(=O)N2CCN(c3ccccc3C(=O)Nc3ccc(Oc4ccccc4)nc3)CC2)n1` [2-{4-[2-(3,5-Dimethyl-pyrazol-1-yl)-acetyl]-piperazin-1-yl}-N-(6-phenoxy-pyridin-3-yl)-benzamide], the IC50 came out at 10 nM.

Take `COc1ccc(C(=O)NCC(=O)N2CCN(c3ccccc3C(=O)Nc3cccnc3)CC2)cc1F` [3-Fluoro-4-methoxy-N-(2-oxo-2-{4-[2-(pyridin-3-ylcarbamoyl)-phenyl]-piperazin-1-yl}-ethyl)-benzamide]: the 50% inhibitory concentration (IC50) was determined as 19.5 nM.

As for `Cc1cc(C)n(CC(=O)N2CCN(c3ccccc3NC(=O)c3cccnc3)CC2)n1` [N-(2-{4-[2-(3,5-Dimethyl-pyrazol-1-yl)-acetyl]-piperazin-1-yl}-phenyl)-nicotinamide], the IC50 was found to be 15 nM.

As for `Cc1cc(C)n(CC(=O)N2CCN(c3ccccc3C(=O)Nc3nnc(C(C)(C)C)s3)CC2)n1` [N-(5-tert-Butyl-[1,3,4]thiadiazol-2-yl)-2-{4-[2-(3,5-dimethyl-pyrazol-1-yl)-acetyl]-piperazin-1-yl}-benzamide], the IC50 came out at 9.7 nM.

`Cc1cc(C)n(CC(=O)N2CCN(c3ccccc3C(=O)Nc3nc4c(s3)COCC4)CC2)n1` [N-(6,7-Dihydro-4H-pyrano[4,3-d]thiazol-2-yl)-2-{4-[2-(3,5-dimethyl-pyrazol-1-yl)-acetyl]-piperazin-1-yl}-benzamide]: the IC50 was 8.6 nM.

As to `COc1cc(NC(=O)c2ccccc2N2CCN(C(=O)Cn3nc(C)cc3C)[C@@H](C)C2)ccn1` [2-{(S)-4-[2-(3,5-Dimethyl-pyrazol-1-yl)-acetyl]-3-methyl-piperazin-1-yl}-N-(2-methoxy-pyridin-4-yl)-benzamide], the IC50 turned out to be 21 nM.

`Cc1cc(C)n(CC(=O)N2CCN(c3ccccc3C(=O)Nc3ccnc(N4CCN(C)CC4)c3)CC2)n1` [2-{4-[2-(3,5-Dimethyl-pyrazol-1-yl)-acetyl]-piperazin-1-yl}-N-[2-(4-methyl-piperazin-1-yl)-pyridin-4-yl]-benzamide]: the IC50 was found to be 14 nM.

With `Cc1cc(C)n(CC(=O)N2CCN(c3ccccc3C(=O)Nc3nc4cc(Cl)ccc4s3)CC2)n1` [N-(5-Chloro-benzothiazol-2-yl)-2-{4-[2-(3,5-dimethyl-pyrazol-1-yl)-acetyl]-piperazin-1-yl}-benzamide], the IC50 is 17 nM.

`Cc1nn(CC(=O)N2CCN(c3ncc(Cl)cc3NC(=O)c3cccc(C(F)(F)F)c3)CC2)c(C)c1Cl`: the IC50 was 7.2 nM.

Regarding `COc1cccc(C(=O)NCC(=O)N2CCN(c3ccccc3C(=O)Nc3ccncc3)CC2)c1OC` [2,3-Dimethoxy-N-(2-oxo-2-{4-[2-(pyridin-4-ylcarbamoyl)-phenyl]-piperazin-1-yl}-ethyl)-benzamide], the IC50 is 3.7 nM.

With `O=C(Nc1ccc(C(F)(F)F)nc1)c1ccccc1N1CCN(C(=O)CN2CCCCC2=O)CC1` [2-{4-[2-(2-Oxo-piperidin-1-yl)-acetyl]-piperazin-1-yl}-N-(6-trifluoromethyl-pyridin-3-yl)-benzamide], the IC50 is 3 nM.

Take `Cc1cc(C)n(CC(=O)N2CCN(c3ccccc3NC(=O)c3ccc(Cl)cc3)CC2)n1` [4-Chloro-N-(2-{4-[2-(3,5-dimethyl-pyrazol-1-yl)-acetyl]-piperazin-1-yl}-phenyl)-benzamide]: the IC50 is 4.7 nM.

As to `O=C(Nc1cccnc1)c1ccccc1N1CCN(C(=O)CN2CCc3cccnc32)CC1` [2-[4-(2-2,3-Dihydro-pyrrolo[2,3-b]pyridin-1-yl-acetyl)-piperazin-1-yl]-N-pyridin-3-yl-benzamide], the IC50 turned out to be 10 nM.
